The values that follow come from patent US7619076B2, “Synthetic compounds useful as nodulation agents of leguminous plants and preparation processes thereof” (Bayer Cropscience S.A., priority 2003, dated 2009).

Entries after “also recorded” stand apart in the source; their conditions may differ.

One assay concerns alfalfa. Put plainly: Nodulation tests on alfalfa (induction of the formation of root nodules). In kind it is in vivo. The conditions noted are these: alfalfa plantlets; for nodulation activity relative to the benzamide derivative 3: FIG. 2-4. Here is the method:
The sulfated products are tested on alfalfa for induction of the formation of root nodules, and on the model legume Medicago truncatula for induction of the expression of a symbiotic gene coding for an early nodulin. Alfalfa plantlets are grown under axenic conditions in test tubes on a nitrogen-poor agar medium (Demont-Caulet et al., Plant Physiol., 120, 83-92, 1999). Untreated plantlets serve as control. Natural Nod or synthetic LCO factors are added at the concentrations indicated.

Assay [1] has as its system MtENOD11::GUS in plant bearing a mutation in the DMI1 gene. Put plainly: Induction of early nodulin ENOD11 transcription, MtENOD11::GUS reporter, plants bearing a mutation in the DMI1 gene. The following applies: DMI1 mutant plants, 6 hours LCO treatment, X-Gluc. In kind it is in vivo, Medicago truncatula. As for the experimental part: (§1) These tests are performed to determine whether the synthetic LCOs induce symbiotic responses by activation on the same signal transduction pathway as the natural Nod factors. The tests are performed on the model legume Medicago truncatula. […] The compound that serves as reference is the sulfated tetramer 12 acylated with C16:2Δ2E,9Z chain, which is an analog of the natural Nod factor. The control is the plant cultivated in the absence of LCO.
(§2) A new gene of Medicago truncatula, MtENOD11, coding for an RPRP (Repetitive proline-rich protein), and transcribed during the first steps of infection of nodulation on the nodule roots and tissues was identified (Journet et al. Mol. Plant-Microbe Interact., 14, 737-748, 2001). Using the transgenic Medicago truncatula plant expressing the fusion MtENOD11::GUSA, it is possible to determine whether a Nod factor analog added to the culture medium of the plant has induced transcription of the ENOD11 gene.
(§3) For the ENOD11 transcription tests, a Fahraeus medium is used as for the modulation tests, but without agar. The seedlings are placed on paper in pockets containing the culture medium. […] The number of roots giving a characteristic blue response is then counted.

Another assay has as its system MtENOD11::GUSA. The assay is described as follows: Induction of early nodulin ENOD11 transcription, MtENOD11::GUSA reporter, wild-type Jemalong plants. In kind it is in vivo, Medicago truncatula. The following applies: 6 hours LCO treatment, X-Gluc blue roots counted, FIG. 5. As for the experimental part:
as §1, §2, §3

The subject of a further assay is Lotus corniculatus. Put plainly: Root hair deformation assay on Lotus corniculatus. In kind it is in vivo. Also on record: key to Root hair deformation (Had) response: The responses were classified “+” when the proportion of Had+ was significantly higher (at the probability level P=0.05) among the treated plants compared with the untreated control. The following applies: for Root hair deformation (Had) response: 15 plants, 16 hr incubation. As for the experimental part: Seeds of Lotus corniculatus (cv Rodeo) were sterilized. Germinated seeds with rootlets about 1 cm long were aseptically transferred onto Farhaeus soft agar plates. Plates were sealed with Parafilm and placed vertically for two days in a plant growth chamber (at 25° C., with a 16-hr light period, a relative humidity of 75%, OsramVFluora L 77 as the type of light, and light intensity at the level of the top of the plates of 30 μE.m-2.s-1) to allow plant growth and root hair development. Then 2 ml of a Nod factor derivative sterile solution was poured to cover the Lotus root system, and after 30 mm, excess liquid was removed. A further incubation was performed for 16 hr in the plant growth chamber. The roots of the five plants were transferred between slide and cover slip and observed by bright field microscopy after staining by methylene blue.
Hair deformation (Had) activity was estimated by a limit dilution method. Nod factor derivatives were applied at concentrations ranging from 10^-7 M to 10-11 M. The activity of two DP5 chitin derivatives were compared, the soybean Nod factor and its benzoylated analog 10. Both compounds were O-fucosylated at the reducing end, but differed by the N-substitution on the terminal non-reducing glucosamine residue, either C18:1 N-acylated like the soybean Nod factor or N-benzoylated. Each compound was dissolved in water/ethanol 50/50; 0,01% Chaps was added at a concentration of 1 mM. These stock solutions were then diluted in water. […] The statistical significance (at the P=0.05) of the proportion of <<+>> responses was calculated using the ratio comparisons based on the Fisher's <<Exact>> test (SAS software). Experiments were carried out twice.
Fifteen plants were used for each treatment and each dilution. Sixty six untreated control plants were used to estimate the intrinsic plant variability for the Hair deformation character. […] Data were analysed using the Fisher's “Exact” test.

Turning to `CCCCCC/C=C\CCCOc1cccc(C(=O)N[C@H]2[C@H](O[C@H]3[C@H](O)[C@@H](NC(C)=O)[C@H](O[C@H]4[C@H](O)[C@@H](NC(C)=O)[C@H](O[C@H]5[C@H](O)[C@@H](NC(C)=O)C(O)O[C@@H]5COS(=O)(=O)[O-])O[C@@H]4CO)O[C@@H]3CO)O[C@H](CO)[C@@H](O)[C@@H]2O)c1.[Na+]` (stereo partly drawn) [compound 3, 2-acetamido-4-O-{2-acetamido-4-O-[2-acetamido-2-deoxy-4-O-(2-deoxy-2-(N-3-(undec-4Z-enyloxy)benzoyl)amino-β-D-glucopyranosyl)-β-D-glucopyranosyl]-2-deoxy-β-D-glucopyranosyl}-2-deoxy-6-O-sulfo-D-glucopyranose, sodium salt], in the assay on alfalfa (axenic, nitrogen-poor agar medium, result in words, sodium salt), the “nodulation activity on alfalfa” value is listed as “advantageous activity; also recorded: most active synthetic compound”. Moreover, the “nodulation activity relative to the sulfated tetramer 11 acylated with the reference C16:1Δ9Z chain” value with alfalfa (FIG. 1) was “similar”. Besides, the “ENOD11::GUS response in plants bearing the DMI1 mutation” value in assay [1] is given as “does not induce any response”. For the same molecule, the “ENOD11 transcription, times less active than the reference compound, the acylated tetramer 12” value in the assay on MtENOD11::GUSA is “approximately 10 times”.

On to `CCCCCC/C=C\CCCOc1cccc(CN[C@H]2[C@H](O[C@H]3[C@H](O)[C@@H](NC(C)=O)[C@H](O[C@H]4[C@H](O)[C@@H](NC(C)=O)[C@H](O[C@H]5[C@H](O)[C@@H](NC(C)=O)C(O)O[C@@H]5COS(=O)(=O)[O-])O[C@@H]4CO)O[C@@H]3CO)O[C@H](CO)[C@@H](O)[C@@H]2O)c1.[Na+]` (stereo partly drawn) [compound 4, 2-acetamido 4-O-{2-acetamido-4-O-[2-acetamido-2-deoxy-4-O-(2-deoxy-2-(N-3-(undec-4Z-enyloxy)benzyl)amino-β-D-glucopyranosyl)-β-D-glucopyranosyl]-2-deoxy-β-D-glucopyranosyl}-2-deoxy-6-O-sulfo-D-glucopyranose, sodium salt], for which the “nodulation activity relative to the benzamide derivative 3” value in the assay with alfalfa was “moderate activity”.

As for `CCCCCC/C=C\CCCOc1cccc(CN(C(C)=O)[C@H]2[C@H](O[C@H]3[C@H](O)[C@@H](NC(C)=O)[C@H](O[C@H]4[C@H](O)[C@@H](NC(C)=O)[C@H](O[C@H]5[C@H](O)[C@@H](NC(C)=O)C(O)O[C@@H]5COS(=O)(=O)[O-])O[C@@H]4CO)O[C@@H]3CO)O[C@H](CO)[C@@H](O)[C@@H]2O)c1.[Na+]` (stereo partly drawn) [compound 5, 2-acetamido-4-O-{2-acetamido-4-O-[2-acetamido-2-deoxy-4-O-(2-deoxy-2-(N-3-(undec-4Z-enyloxy)benzyl)acetamido-β-D-glucopyranosyl)-β-D-glucopyranosyl]-2-deoxy-β-D-glucopyranosyl}-2-deoxy-6-O-sulfo-D-glucopyranose, sodium salt], the “nodulation activity relative to the benzamide derivative 3” value in the assay with alfalfa is given as “lower”.

Regarding `CCCCCCC#CCCCOc1cccc(C(=O)N[C@H]2[C@H](O[C@H]3[C@H](O)[C@@H](NC(C)=O)[C@H](O[C@H]4[C@H](O)[C@@H](NC(C)=O)[C@H](O[C@H]5[C@H](O)[C@@H](NC(C)=O)C(O)O[C@@H]5COS(=O)(=O)[O-])O[C@@H]4CO)O[C@@H]3CO)O[C@H](CO)[C@@H](O)[C@@H]2O)c1.[Na+]` (stereo partly drawn) [compound 7, 2-acetamido-4-O-{2-acetamido-4-O-[2-acetamido-2-deoxy-4-O-(2-deoxy-2-(N-3-(undec-4Z-ynyloxy)benzoyl)amino-β-D-glucopyranosyl)-β-D-glucopyranosyl]-2-deoxy-β-D-glucopyranosyl}-2-deoxy-6-O-sulfo-D-glucopyranose, sodium salt], the “nodulation activity relative to the benzamide derivative 3” value in the assay with alfalfa is reported as “comparable”.

Consider `CCCCCC/C=C\CCCOc1cccc(C(=O)NC2C(O)[C@H](O)C(CO)O[C@H]2O[C@@H]2C(CO)O[C@@H](O[C@@H]3C(CO)O[C@@H](O[C@@H]4C(CO)O[C@@H](O[C@@H]5C(CO[C@@H]6OC(C)[C@@H](O)C(O)C6O)OC(O)C(NC(C)=O)C5O)C(NC(C)=O)C4O)C(NC(C)=O)C3O)C(NC(C)=O)C2O)c1` (stereo partly drawn) [compound 10, 2-acetamido-4-O-[2-acetamido-4-O-{2-acetamido-4-O-[2-acetamido-2-deoxy-4-O-(2-deoxy-2-(N-3-(undec-4Z-enyloxy)benzoyl)amino-β-D-glucopyranosyl)-β-D-glucopyranosy]-2-deoxy-β-D-glucopyranosyl}-2-deoxy-β-D-glucopyranosyl]-2-deoxy-6-O-(-α-L-fucopyranosyl)-D-glucopyranose], for which the “Root hair deformation (Had) response” value in the assay with Lotus corniculatus (10^−7 M), with Lotus corniculatus (10^−8 M) and in the assay with Lotus corniculatus (10^−9 M) was “+” each time. In addition, the “concentration at which activity is significant in the root hair bioassay” value in the assay with Lotus corniculatus (limit dilution method) was “nanomolar”. For the same molecule, the “activity on the Lotus corniculatus root hair bioassay” value in the assay with Lotus corniculatus (result in words) is recorded as “high activity”.
